Common to all, as to assay: Activity against lenalidomide resistant cell lines
Type in all cases: cell-based

The subject of one assay is 1051. The following applies: 1051, n = 3. As for the experimental part:
(§1) The ability of compounds to effect the proliferation of MM cell lines was investigated in an in vitro study. Uptake of [^3H]-thymidine by H929 MM cells and 7-AAD uptake in several MM cell lines (H929, U266B1, Anbl-6, KMS-34, OPM-2, DF-15, DF15/R, CAG, MM1.S and LP-1) was measured as an indicator of cell proliferation. Cells were incubated in the presence of compounds for 72 hours ([^3H]-thymidine was included for the last 6 hours of the incubation period) or 5 days followed by 7-AAD uptake to measure and count viable cells.

Another assay concerns 1052. The following applies: 1052, n = 3. The method, then:
as §1

In a further assay the test system is 1053. To be noted: 1053, n = 3. As for the experimental part:
as §1

Another assay has as its system 1054. The following applies: 1054, n = 3. The method, then: as §1
Another assay deals with D1. The following applies: D1, n = 3. The method, then:
as §1

The test system of the next assay is H929. The following applies: Homo sapiens, NCI-H929; H929, n = 3. As for the experimental part:
as §1

`Nc1cccc2c1CN(C1CCC(=O)NC1=O)C2=O` (stereo not drawn) [Lenolidomide, Lenalidomide, reference compound]: the IC50 entry in the assay with 1051 is “No IC50”; with 1052, “No IC50”; with 1053, “No IC50”; with 1054, “No IC50”; in the assay on D1, “No IC50”; in the assay on H929, 12.6 µM.

The values are drawn from patent US20180055844A1 (Celgene Corporation, priority 2011, published 2018).
